Measurements: ChEMBL document CHEMBL4507284, “Data for DCP probe BI-1230” (2021)

Legend:
[1] = test system: Tyrosine-protein kinase ABL1 (Homo sapiens), P00519 [M351T]; conditions: Compound concentration 1000.0 nM
[2] = target: Activin receptor type-1-like (Homo sapiens) (UniProt P37023); conditions: Compound concentration 1000.0 nM
[3] = target: BMP-2-inducible protein kinase (Homo sapiens) (UniProt Q9NSY1); conditions: Compound concentration 1000.0 nM
[4] = test system: Serine/threonine-protein kinase B-raf (Homo sapiens), P15056 [V600E]; conditions: Compound concentration 1000.0 nM
[5] = target: Cyclin-dependent kinase 11A (Homo sapiens) (UniProt Q9UQ88); conditions: Compound concentration 1000.0 nM
Chain of Cyclin-dependent kinase 11A (Homo sapiens) (Q9UQ88 whole entry): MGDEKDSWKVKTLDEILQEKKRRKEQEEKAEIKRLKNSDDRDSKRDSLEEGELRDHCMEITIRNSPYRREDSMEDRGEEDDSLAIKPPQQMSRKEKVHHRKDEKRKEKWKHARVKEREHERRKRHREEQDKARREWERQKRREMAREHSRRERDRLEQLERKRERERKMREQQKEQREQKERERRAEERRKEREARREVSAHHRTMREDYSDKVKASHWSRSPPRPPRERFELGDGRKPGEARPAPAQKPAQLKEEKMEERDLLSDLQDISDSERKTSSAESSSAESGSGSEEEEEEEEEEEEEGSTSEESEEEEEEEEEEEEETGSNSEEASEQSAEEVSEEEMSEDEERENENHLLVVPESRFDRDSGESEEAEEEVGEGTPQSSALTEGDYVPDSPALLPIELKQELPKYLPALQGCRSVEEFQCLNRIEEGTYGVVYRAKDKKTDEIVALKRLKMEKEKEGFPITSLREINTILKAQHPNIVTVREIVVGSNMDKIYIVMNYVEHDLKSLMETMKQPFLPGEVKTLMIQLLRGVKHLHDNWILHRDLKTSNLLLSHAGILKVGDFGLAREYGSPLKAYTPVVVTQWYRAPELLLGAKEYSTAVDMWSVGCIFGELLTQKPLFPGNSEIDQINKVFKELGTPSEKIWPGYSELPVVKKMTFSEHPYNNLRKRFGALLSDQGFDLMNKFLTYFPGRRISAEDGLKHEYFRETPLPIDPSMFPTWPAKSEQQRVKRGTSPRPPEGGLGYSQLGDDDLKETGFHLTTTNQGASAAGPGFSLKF

[6] = target: Cyclin-dependent kinase 2 (Homo sapiens) (UniProt P24941); conditions: Compound concentration 1000.0 nM
[7] = target: Dual specificity protein kinase CLK3 (Homo sapiens) (UniProt P49761); conditions: Compound concentration 1000.0 nM
[8] = target: Death-associated protein kinase 2 (Homo sapiens) (UniProt Q9UIK4); conditions: Compound concentration 1000.0 nM
[9] = target: Serine/threonine-protein kinase DCLK2 (Homo sapiens) (UniProt Q8N568); conditions: Compound concentration 1000.0 nM
[10] = target: Ephrin type-B receptor 3 (Homo sapiens) (UniProt P54753); conditions: Compound concentration 1000.0 nM
[11] = target: Receptor tyrosine-protein kinase erbB-4 (Homo sapiens) (UniProt Q15303); conditions: Compound concentration 1000.0 nM
[12] = target: Fibroblast growth factor receptor 4 (Homo sapiens) (UniProt P22455); conditions: Compound concentration 1000.0 nM
[13] = target: Receptor-type tyrosine-protein kinase FLT3 (Homo sapiens) (UniProt P36888); conditions: Compound concentration 1000.0 nM
[14] = target: Homeodomain-interacting protein kinase 2 (Homo sapiens) (UniProt Q9H2X6); conditions: Compound concentration 1000.0 nM
[15] = target: Hormonally up-regulated neu tumor-associated kinase (Homo sapiens) (UniProt P57058); conditions: Compound concentration 1000.0 nM
[16] = target: Insulin-like growth factor 1 receptor (Homo sapiens) (UniProt P08069); conditions: Compound concentration 1000.0 nM
Chain of Insulin-like growth factor 1 receptor (Homo sapiens) (P08069 31-736 limits assumed): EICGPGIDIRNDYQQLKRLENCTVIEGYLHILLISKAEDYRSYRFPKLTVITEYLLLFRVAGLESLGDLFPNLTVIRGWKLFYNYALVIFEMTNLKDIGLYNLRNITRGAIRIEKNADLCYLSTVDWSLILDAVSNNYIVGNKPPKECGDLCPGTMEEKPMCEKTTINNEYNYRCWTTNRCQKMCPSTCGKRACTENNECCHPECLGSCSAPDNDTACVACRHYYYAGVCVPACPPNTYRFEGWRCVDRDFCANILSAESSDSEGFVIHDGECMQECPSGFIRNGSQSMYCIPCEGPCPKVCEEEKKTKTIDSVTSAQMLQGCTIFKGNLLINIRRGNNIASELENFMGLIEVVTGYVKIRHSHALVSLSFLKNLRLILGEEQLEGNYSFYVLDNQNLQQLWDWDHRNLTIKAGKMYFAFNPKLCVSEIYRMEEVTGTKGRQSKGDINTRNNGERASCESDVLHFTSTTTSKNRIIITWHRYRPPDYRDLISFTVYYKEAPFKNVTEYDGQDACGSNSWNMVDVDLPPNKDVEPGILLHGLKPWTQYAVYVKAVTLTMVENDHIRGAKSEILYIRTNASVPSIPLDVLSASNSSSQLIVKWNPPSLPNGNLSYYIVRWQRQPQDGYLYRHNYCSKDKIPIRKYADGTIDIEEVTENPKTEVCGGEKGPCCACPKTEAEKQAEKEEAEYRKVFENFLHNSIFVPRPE
Chain of Insulin-like growth factor 1 receptor (Homo sapiens) (P08069 741-1367 limits assumed): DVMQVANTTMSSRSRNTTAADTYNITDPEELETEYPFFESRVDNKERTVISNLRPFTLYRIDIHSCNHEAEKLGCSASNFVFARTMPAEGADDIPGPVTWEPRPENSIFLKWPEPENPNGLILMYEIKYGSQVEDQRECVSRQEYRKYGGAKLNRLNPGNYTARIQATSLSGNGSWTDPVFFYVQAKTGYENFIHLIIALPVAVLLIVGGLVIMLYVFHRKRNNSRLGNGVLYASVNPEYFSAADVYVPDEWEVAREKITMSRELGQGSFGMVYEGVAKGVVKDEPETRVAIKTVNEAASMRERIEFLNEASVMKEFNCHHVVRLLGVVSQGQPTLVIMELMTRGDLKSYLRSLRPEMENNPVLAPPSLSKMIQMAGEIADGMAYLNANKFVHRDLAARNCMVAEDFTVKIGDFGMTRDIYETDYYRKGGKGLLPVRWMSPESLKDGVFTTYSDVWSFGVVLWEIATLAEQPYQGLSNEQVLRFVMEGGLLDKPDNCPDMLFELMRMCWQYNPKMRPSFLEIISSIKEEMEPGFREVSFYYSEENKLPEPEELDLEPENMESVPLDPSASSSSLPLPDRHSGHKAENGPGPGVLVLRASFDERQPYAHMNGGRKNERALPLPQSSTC

[17] = target: Inhibitor of nuclear factor kappa-B kinase subunit beta (Homo sapiens) (UniProt O14920); conditions: Compound concentration 1000.0 nM
[18] = target: Tyrosine-protein kinase ITK/TSK (Homo sapiens) (UniProt Q08881); conditions: Compound concentration 1000.0 nM
[19] = target: Tyrosine-protein kinase JAK3 (Homo sapiens) (UniProt P52333); conditions: Compound concentration 1000.0 nM
[20] = target: Mast/stem cell growth factor receptor Kit (Homo sapiens) (UniProt P10721); conditions: Compound concentration 1000.0 nM
[21] = target: LIM domain kinase 2 (Homo sapiens) (UniProt P53671); conditions: Compound concentration 1000.0 nM
[22] = target: MAP/microtubule affinity-regulating kinase 4 (Homo sapiens) (UniProt Q96L34); conditions: Compound concentration 1000.0 nM
[23] = target: Microtubule-associated serine/threonine-protein kinase 1 (Homo sapiens) (UniProt Q9Y2H9); conditions: Compound concentration 1000.0 nM
[24] = target: Dual specificity mitogen-activated protein kinase kinase 6 (Homo sapiens) (UniProt P52564); conditions: Compound concentration 1000.0 nM
[25] = target: Serine/threonine-protein kinase 4 (Homo sapiens) (UniProt Q13043); conditions: Compound concentration 1000.0 nM
[26] = target: Myosin-IIIa (Homo sapiens) (UniProt Q8NEV4); conditions: Compound concentration 1000.0 nM
[27] = target: Serine/threonine-protein kinase Nek1 (Homo sapiens) (UniProt Q96PY6); conditions: Compound concentration 1000.0 nM
[28] = target: Serine/threonine-protein kinase OSR1 (Homo sapiens) (UniProt O95747); conditions: Compound concentration 1000.0 nM
[29] = target: Cyclin-dependent kinase 18 (Homo sapiens) (UniProt Q07002); conditions: Compound concentration 1000.0 nM
[30] = target: Phosphatidylinositol 4,5-bisphosphate 3-kinase catalytic subunit alpha isoform (Homo sapiens) (UniProt P42336); conditions: Compound concentration 1000.0 nM
[31] = test system: Phosphatidylinositol 4,5-bisphosphate 3-kinase catalytic subunit alpha isoform (Homo sapiens), P42336 [E545K]; conditions: Compound concentration 1000.0 nM
[32] = target: Receptor-interacting serine/threonine-protein kinase 1 (Homo sapiens) (UniProt Q13546); conditions: Compound concentration 1000.0 nM
[33] = target: Dual serine/threonine and tyrosine protein kinase (Homo sapiens) (UniProt Q6XUX3); conditions: Compound concentration 1000.0 nM
[34] = target: Rho-associated protein kinase 1 (Homo sapiens) (UniProt Q13464); conditions: Compound concentration 1000.0 nM
Chain of Rho-associated protein kinase 1 (Homo sapiens) (Q13464 2-1354 limits assumed): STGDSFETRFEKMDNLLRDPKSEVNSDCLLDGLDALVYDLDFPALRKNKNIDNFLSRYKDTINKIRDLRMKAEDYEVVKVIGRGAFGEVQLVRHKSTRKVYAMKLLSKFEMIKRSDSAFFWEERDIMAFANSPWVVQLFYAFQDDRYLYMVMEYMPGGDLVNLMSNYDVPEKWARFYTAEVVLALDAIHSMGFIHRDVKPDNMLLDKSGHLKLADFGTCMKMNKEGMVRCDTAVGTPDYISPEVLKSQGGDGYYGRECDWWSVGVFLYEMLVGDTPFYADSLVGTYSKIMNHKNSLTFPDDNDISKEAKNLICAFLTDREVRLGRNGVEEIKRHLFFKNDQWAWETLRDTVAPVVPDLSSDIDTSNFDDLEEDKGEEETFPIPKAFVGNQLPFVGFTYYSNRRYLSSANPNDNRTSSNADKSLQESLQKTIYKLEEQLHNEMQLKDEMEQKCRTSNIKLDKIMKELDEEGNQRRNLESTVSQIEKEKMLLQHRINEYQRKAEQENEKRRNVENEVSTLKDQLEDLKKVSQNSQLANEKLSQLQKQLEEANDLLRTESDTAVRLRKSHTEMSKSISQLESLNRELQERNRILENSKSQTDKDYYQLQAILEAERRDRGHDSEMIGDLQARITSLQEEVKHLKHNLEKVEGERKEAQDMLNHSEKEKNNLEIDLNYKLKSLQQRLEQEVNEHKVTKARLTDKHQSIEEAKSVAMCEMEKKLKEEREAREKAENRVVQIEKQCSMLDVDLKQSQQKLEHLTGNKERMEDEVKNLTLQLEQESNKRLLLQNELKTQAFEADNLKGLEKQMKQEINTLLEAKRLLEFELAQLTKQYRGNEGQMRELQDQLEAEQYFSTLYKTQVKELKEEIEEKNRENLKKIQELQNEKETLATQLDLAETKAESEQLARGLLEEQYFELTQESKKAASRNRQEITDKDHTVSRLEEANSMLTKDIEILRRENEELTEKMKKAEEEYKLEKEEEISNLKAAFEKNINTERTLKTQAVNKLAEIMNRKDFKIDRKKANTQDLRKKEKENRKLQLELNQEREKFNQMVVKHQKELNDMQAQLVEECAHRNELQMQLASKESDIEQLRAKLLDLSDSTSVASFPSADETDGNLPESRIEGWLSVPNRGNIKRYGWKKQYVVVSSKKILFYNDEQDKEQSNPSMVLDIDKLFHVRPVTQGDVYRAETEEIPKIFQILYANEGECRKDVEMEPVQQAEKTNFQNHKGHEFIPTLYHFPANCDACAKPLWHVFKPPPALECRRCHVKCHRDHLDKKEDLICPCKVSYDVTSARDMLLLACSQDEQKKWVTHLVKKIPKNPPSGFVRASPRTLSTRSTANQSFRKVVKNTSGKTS

[35] = target: Tyrosine-protein kinase SYK (Homo sapiens) (UniProt P43405); conditions: Compound concentration 1000.0 nM
[36] = target: Tyrosine-protein kinase Tec (Homo sapiens) (UniProt P42680); conditions: Compound concentration 1000.0 nM
[37] = target: Non-receptor tyrosine-protein kinase TNK1 (Homo sapiens) (UniProt Q13470); conditions: Compound concentration 1000.0 nM
[38] = target: Non-receptor tyrosine-protein kinase TYK2 (Homo sapiens) (UniProt P29597); conditions: Compound concentration 1000.0 nM
[39] = target: Serine/threonine-protein kinase 32A (Homo sapiens) (UniProt Q8WU08); conditions: Compound concentration 1000.0 nM
[40] = target: Serine/threonine-protein kinase 32B (Homo sapiens) (UniProt Q9NY57); conditions: Compound concentration 1000.0 nM
Chain of Serine/threonine-protein kinase 32B (Homo sapiens) (Q9NY57 whole entry): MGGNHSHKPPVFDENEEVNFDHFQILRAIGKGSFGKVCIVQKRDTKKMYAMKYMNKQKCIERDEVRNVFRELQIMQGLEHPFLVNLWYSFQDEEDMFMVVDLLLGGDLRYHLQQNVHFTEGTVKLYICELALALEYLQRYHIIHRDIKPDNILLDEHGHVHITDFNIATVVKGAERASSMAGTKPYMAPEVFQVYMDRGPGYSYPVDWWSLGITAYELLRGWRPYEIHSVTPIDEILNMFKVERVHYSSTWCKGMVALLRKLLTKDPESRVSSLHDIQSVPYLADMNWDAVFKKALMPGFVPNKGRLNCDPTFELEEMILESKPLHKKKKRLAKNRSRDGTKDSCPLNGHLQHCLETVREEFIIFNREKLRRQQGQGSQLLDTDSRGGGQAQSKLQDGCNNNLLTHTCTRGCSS

[41] = target: Tyrosine-protein kinase ZAP-70 (Homo sapiens) (UniProt P43403); conditions: Compound concentration 1000.0 nM
Chain of Tyrosine-protein kinase ZAP-70 (Homo sapiens) (P43403 whole entry): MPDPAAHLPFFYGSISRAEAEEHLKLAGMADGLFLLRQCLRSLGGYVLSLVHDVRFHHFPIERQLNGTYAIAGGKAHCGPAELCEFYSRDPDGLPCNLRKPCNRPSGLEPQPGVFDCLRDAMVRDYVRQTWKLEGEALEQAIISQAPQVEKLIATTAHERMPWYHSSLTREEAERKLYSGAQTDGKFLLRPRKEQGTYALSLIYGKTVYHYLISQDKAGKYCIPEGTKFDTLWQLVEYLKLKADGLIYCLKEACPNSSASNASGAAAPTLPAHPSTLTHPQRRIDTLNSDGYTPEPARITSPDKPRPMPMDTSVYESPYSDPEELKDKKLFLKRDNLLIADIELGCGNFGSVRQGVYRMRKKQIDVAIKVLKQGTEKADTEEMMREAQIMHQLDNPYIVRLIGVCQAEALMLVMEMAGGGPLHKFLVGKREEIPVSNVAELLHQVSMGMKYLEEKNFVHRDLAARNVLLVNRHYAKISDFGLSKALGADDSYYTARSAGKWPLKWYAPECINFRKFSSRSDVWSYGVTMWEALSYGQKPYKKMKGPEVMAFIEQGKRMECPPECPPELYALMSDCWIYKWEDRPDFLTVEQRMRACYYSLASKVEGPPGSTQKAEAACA

[42] = target: 5-hydroxytryptamine receptor 2B (Homo sapiens) (UniProt P41595); conditions: Compound concentration 10.0 uM
Chain of 5-hydroxytryptamine receptor 2B (Homo sapiens) (P41595 whole entry): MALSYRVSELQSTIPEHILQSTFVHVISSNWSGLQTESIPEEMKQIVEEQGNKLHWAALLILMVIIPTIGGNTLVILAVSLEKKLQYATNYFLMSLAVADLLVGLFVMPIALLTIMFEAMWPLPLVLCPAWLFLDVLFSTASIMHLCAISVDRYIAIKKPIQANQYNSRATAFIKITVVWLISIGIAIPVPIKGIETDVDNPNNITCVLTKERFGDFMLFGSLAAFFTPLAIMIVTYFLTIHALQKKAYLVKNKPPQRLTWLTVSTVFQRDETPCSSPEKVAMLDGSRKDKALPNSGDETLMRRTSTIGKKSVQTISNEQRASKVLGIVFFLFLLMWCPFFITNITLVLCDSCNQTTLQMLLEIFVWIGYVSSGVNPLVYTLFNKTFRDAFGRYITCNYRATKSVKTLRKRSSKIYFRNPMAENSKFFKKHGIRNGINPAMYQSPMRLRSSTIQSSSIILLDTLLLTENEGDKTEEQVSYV

[43] = target: D(1B) dopamine receptor (Homo sapiens) (UniProt P21918); conditions: Compound concentration 10.0 uM
[44] = target: Alpha-1A adrenergic receptor (Homo sapiens) (UniProt P35348); conditions: Compound concentration 10.0 uM
[45] = target: Alpha-2A adrenergic receptor (Homo sapiens) (UniProt P08913); conditions: Compound concentration 10.0 uM

O=C(N[C@H]1CCCCC/C=C\C2C[C@@]2(C(=O)O)NC(=O)[C@@H]2C[C@@H](Oc3ccncc3)CN2C1=O)OC1CCCC1 (stereo not given in full) [BI 1675]
inactive: residual activity [1] 89% | residual activity [2] 84% | residual activity [3] 96% | residual activity [4] 93% | residual activity [5] 88% | residual activity [6] 87% | residual activity [7] 93% | residual activity [8] 100% | residual activity [9] 93% | residual activity [10] 100% | residual activity [11] 100% | residual activity [12] 100% | residual activity [13] 100% | residual activity [14] 100% | residual activity [15] 100% | residual activity [16] 96% | residual activity [17] 91% | residual activity [18] 100% | residual activity [19] 100% | residual activity [20] 91% | residual activity [21] 93% | residual activity [22] 100% | residual activity [23] 82% | residual activity [24] 94% | residual activity [25] 100% | residual activity [26] 94% | residual activity [27] 100% | residual activity [28] 75% | residual activity [29] 92% | residual activity [30] 98% | residual activity [31] 95% | residual activity [32] 88% | residual activity [33] 100% | residual activity [34] 100% | residual activity [35] 100% | residual activity [36] 100% | residual activity [37] 100% | residual activity [38] 98% | residual activity [39] 89% | residual activity [40] 99% | residual activity [41] 96% | inhibition [42] 1.85% | inhibition [43] 11.3% | inhibition [44] 25.7% | inhibition [45] 0.78%

COc1ccc2c(O[C@@H]3C[C@H]4C(=O)N[C@]5(C(=O)O)CC5/C=C\CCCCC[C@H](NC(=O)OC5CCCC5)C(=O)N4C3)cc(-c3csc(NC(=O)C(C)C)n3)nc2c1C (stereo not given in full) [BI 1230]
inactive: residual activity [1] 90% | residual activity [2] 97% | residual activity [3] 90% | residual activity [4] 77% | residual activity [5] 99% | residual activity [6] 99% | residual activity [7] 100% | residual activity [8] 100% | residual activity [9] 95% | residual activity [10] 100% | residual activity [11] 100% | residual activity [12] 100% | residual activity [13] 87% | residual activity [14] 68% | residual activity [15] 100% | residual activity [16] 98% | residual activity [17] 83% | residual activity [18] 95% | residual activity [19] 88% | residual activity [20] 100% | residual activity [21] 100% | residual activity [22] 99% | residual activity [23] 98% | residual activity [24] 100% | residual activity [25] 100% | residual activity [26] 100% | residual activity [27] 100% | residual activity [28] 82% | residual activity [29] 100% | residual activity [30] 75% | residual activity [31] 68% | residual activity [32] 100% | residual activity [33] 68% | residual activity [34] 98% | residual activity [35] 100% | residual activity [36] 100% | residual activity [37] 100% | residual activity [38] 100% | residual activity [39] 78% | residual activity [40] 100% | residual activity [41] 100% | inhibition [42] 0.15% | inhibition [43] 47.1% | inhibition [44] 1.41% | inhibition [45] 15.3%
